Measured values published in US11814367B2, “Inhibitors of glycogen synthase 1 (GYS1) and methods of use thereof” (Maze Therapeutics, Inc., priority 2021, dated 2023).

molecular target: hGYS1 enzyme (recombinant hGYS1/GN1 protein) (Homo sapiens (Human), UniProt P13807); assay: GYS1 coupled enzyme assay (PK/LDH); assay type: biochemical; conditions: hGYS1/GN1 50 nM, UDP-Glucose 0.8 mM, G6P 1 mM; geometric mean of at least 2 runs
From the text: The GYS1 coupled enzyme assay is a kinetic biochemical assay that indirectly quantifies the rate of glycogen synthesis by coupling the conversion of GYS1 substrate UDP-glucose into UDP with downstream enzymatic reactions. UDP is released from UDP-glucose as glucose monomers are linked into the growing glycogen strand by GYS1. The coupled assay then proceeds with pyruvate kinase utilizing UDP and phospho(enol)pyruvate (PEP) to form pyruvate. Lactate dehydrogenase then converts pyruvate and NADH into lactate and NAD+. Oxidation of NADH to NAD+ can be measured continuously with a plate reader by quantifying the decrease in NADH absorbance at 340 nm over time.
Compounds that inhibit the hGYS1 enzyme and, subsequently, the downstream conversion of NADH to NAD+, were tested using assay ready plates (black, clear bottom 384 well plates) in a final DMSO reaction volume of 2.5% DMSO. The Assay Buffer contained 50 mM Tris pH 7.5, 2 mM MgCl2, and 100 mM KCl. Fresh stocks of BSA at a final concentration of 0.02% and TCEP at 1 mM were added before splitting buffer into hGYS1 buffer and substrate buffer. To the hGYS1 buffer, rabbit liver glycogen was added at a final concentration of 0.2% glycogen. Glucose-6-Phosphate was added at 1 mM, recombinant hGYS1/GN1 protein was added at 50 nM to the substrate buffer, phosphoenolpyruvate (PEP) was added at 2 mM, UDP-Glucose was added at 0.8 mM, NADH) was added at 0.6 mM, and Pyruvate Kinase/Lactate Dehydrogenase was added at 20 units/mL. The reaction was initiated by mixing hGYS1 buffer and substrate buffer at a 1:1 ratio. Both buffers were plated using a liquid dispensing device with hGYS1 buffer plated first followed by the substrate buffer. Plates were spun briefly to eliminate air bubbles and are immediately read in continuous mode at an absorbance of 340 nm, for 10 time points in one-minute increments, for a total of 10 minutes. The slope from these 10 time points was normalized to the positive and negative control wells. The duplicate % inhibition values are then averaged and fit to a Hill equation for dose response according to the Levenberg-Marquardt algorithm with the Hill equation maximum set to 100 and the minimum set to 0.
Unless otherwise specified, IC50 values are reported as the geometric mean of at least 2 assay runs on separate days. Each run represents the average of a technical replicate, where each compound was assayed twice in the same plate. […] A superscript “#” symbol in Table 2 indicates results from a single assay run.

Sequence of hGYS1 enzyme (recombinant hGYS1/GN1 protein) (P13807 whole entry): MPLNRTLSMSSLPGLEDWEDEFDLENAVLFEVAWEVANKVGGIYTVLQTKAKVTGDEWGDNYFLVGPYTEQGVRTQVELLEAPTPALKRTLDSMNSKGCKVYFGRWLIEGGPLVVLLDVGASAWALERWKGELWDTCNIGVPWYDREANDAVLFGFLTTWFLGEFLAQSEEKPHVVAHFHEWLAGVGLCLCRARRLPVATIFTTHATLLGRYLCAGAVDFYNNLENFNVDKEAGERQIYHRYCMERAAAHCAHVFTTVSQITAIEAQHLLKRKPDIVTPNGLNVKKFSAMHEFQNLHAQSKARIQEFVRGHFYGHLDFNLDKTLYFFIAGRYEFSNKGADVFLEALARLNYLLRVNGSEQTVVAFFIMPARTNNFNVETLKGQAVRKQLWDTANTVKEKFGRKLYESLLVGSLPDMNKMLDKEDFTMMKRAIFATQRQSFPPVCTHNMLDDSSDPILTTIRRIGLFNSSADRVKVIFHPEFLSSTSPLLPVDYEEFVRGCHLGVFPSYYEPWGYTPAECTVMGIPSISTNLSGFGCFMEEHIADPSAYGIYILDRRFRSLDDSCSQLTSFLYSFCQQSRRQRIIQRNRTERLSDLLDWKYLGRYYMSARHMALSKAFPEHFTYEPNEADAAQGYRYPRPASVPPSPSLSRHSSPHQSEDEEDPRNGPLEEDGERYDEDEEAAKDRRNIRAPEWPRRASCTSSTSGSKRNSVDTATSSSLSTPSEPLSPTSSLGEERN
Sequence of hGYS1 enzyme (recombinant hGYS1/GN1 protein) (P46976 whole entry partner): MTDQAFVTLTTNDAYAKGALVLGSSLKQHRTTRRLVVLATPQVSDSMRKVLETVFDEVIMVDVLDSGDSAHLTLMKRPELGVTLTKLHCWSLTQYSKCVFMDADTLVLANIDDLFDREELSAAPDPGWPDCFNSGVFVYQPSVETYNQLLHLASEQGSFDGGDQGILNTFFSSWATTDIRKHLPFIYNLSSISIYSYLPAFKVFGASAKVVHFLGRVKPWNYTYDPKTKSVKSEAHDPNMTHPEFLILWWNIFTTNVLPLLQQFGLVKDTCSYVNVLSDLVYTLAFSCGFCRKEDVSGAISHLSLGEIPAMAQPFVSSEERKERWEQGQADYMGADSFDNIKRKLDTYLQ

| SMILES | IC50 [nM] |
| --- | --- |
| CC(C)c1cnc(C(NC(=O)[C@@H]2C[C@@H](F)CN2C(=O)Cc2cnn[nH]2)c2ccccc2)cc1C(F)F (single isomer, unassigned) [Compound 606, (2S,4R)-N-[(S) or (R)-[4-(difluoromethyl)-5-(propan-2-yl)pyridin-2-yl](phenyl)methyl]-4-fluoro-1-[2-(1H-1,2,3-triazol-5-yl)acetyl]pyrrolidine-2-carboxamide] | 1130 |
| CC(=O)NCC(=O)N1CCC[C@H]1C(=O)NC(c1ccc(C2CC2)c(F)c1)c1ccn[nH]1 (single isomer, unassigned) [Compound 615, (2S)-N-[(R) or (S)-(4-cyclopropyl-3-fluorophenyl)(1H-pyrazol-5-yl)methyl]-1-(2-acetamidoacetyl) pyrrolidine-2-carboxamide] | 1580 |
| CC(C)c1ccc(C(NC(=O)[C@@H]2C[C@@H](F)CN2C(=O)Cc2cnn[nH]2)c2ccc(F)cn2)cc1F (single isomer, unassigned) [Compound 616, (2S,4R)-4-fluoro-N-[(R) or (S)-[3-fluoro-4-(propan-2-yl)phenyl](5-fluoropyridin-2-yl)methyl]-1-[2-(1H-1,2,3-triazol-5-yl)acetyl]pyrrolidine-2-carboxamide] | 1320 |
| CC(C)c1ccc(C(NC(=O)[C@@H]2C[C@@H](F)CN2C(=O)Cc2cnn[nH]2)c2cncc(F)c2)cc1F (single isomer, unassigned) [Compound 617, (2S,4R)-4-fluoro-N-[(R) or (S)-[3-fluoro-4-(propan-2-yl)phenyl](5-fluoropyridin-3-yl)methyl]-1-[2-(1H-1,2,3-triazol-5-yl)acetyl]pyrrolidine-2-carboxamide] | 1640 |
| CC(C)c1ccc(C(NC(=O)[C@@H]2C[C@@H](F)CN2C(=O)Cc2cnn[nH]2)c2ccnc(N)c2)cc1F (single isomer, unassigned) [Compound 618, (2S,4R)-N-[(S) or (R)-(2-aminopyridin-4-yl)[3-fluoro-4-(propan-2-yl)phenyl]methyl]-4-fluoro-1-[2-(1H-1,2,3-triazol-5-yl)acetyl]pyrrolidine-2-carboxamide] | 1520 |
| CC(C)c1ccc(C(NC(=O)[C@@H]2C[C@@H](F)CN2C(=O)Cc2cnn[nH]2)c2ccncc2F)cc1F (single isomer, unassigned) [Compound 619, (2S,4R)-4-fluoro-N-[(R) or (S)-[3-fluoro-4-(propan-2-yl)phenyl](3-fluoropyridin-4-yl)methyl]-1-[2-(1H-1,2,3-triazol-5-yl)acetyl]pyrrolidine-2-carboxamide] | 1160 |
| CC(C)c1ccc(C(NC(=O)[C@@H]2C[C@@H](F)CN2C(=O)Cc2cnn[nH]2)c2cccc(N)n2)cc1F (single isomer, unassigned) [Compound 621, (2S,4R)-N-[(R) or (S)-(6-aminopyridin-2-yl)[3-fluoro-4-(propan-2-yl)phenyl]methyl]-4-fluoro-1-[2-(1H-1,2,3-triazol-5-yl)acetyl]pyrrolidine-2-carboxamide] | 555 |
| CC(=O)N1CCC[C@H]1C(=O)NC(c1ccc(C(C)C)cn1)c1ccccc1C (single isomer, unassigned) [Compound 641, (2S)-1-acetyl-N-[(S) or (R)-(2-methylphenyl)[5-(propan-2-yl)pyridin-2-yl]methyl]pyrrolidine-2-carboxamide] | 2950 |
| CC(C)c1ccc([C@@H](NC(=O)[C@@H]2C[C@@H](F)CN2C(=O)Cc2cc[nH]n2)c2ccccc2)cc1 (stereo in doubt) [Compound 225, (2RS,4R)-4-fluoro-N-[(S)-phenyl[4-(propan-2-yl)phenyl]methyl]-1-[2-(1H-pyrazol-3-yl)acetyl]pyrrolidine-2-carboxamide] | 44 |
| CC(=O)N1CCC2(CC(C(=O)N3C[C@H](F)C[C@H]3C(=O)N[C@@H](c3ccccc3)c3ccc(C(C)C)cc3)=NO2)C1 (stereo partly drawn) [Compound 4, (2S,4R)-{7-acetyl-1-oxa-2,7-diazaspiro[4.4]non-2-ene-3-carbonyl}-4-fluoro-N-[(S)-phenyl[4-(propan-2-yl)phenyl]methyl]pyrrolidine-2-carboxamide] | 998 |
| CO[C@H](C)[C@@H](C(=O)N1C[C@H](F)C[C@H]1C(=O)N[C@@H](c1ccccc1)c1ccc(C(C)C)cc1)N(C)C(C)=O [Compound 5, (2S,4R)-4-fluoro-1-[(2S,3R)-3-methoxy-2-(N-methylacetamido)butanoyl]-N-[(S)-phenyl[4-(propan-2-yl)phenyl]methyl]pyrrolidine-2-carboxamide] | 353 |

Other lines, results leading:

| IC50 [nM] | SMILES |
| --- | --- |
| 381 | Cc1cn(CC(=O)N2C[C@H](F)C[C@H]2C(=O)N[C@@H](c2ccccc2)c2ccc(C(C)C)c(F)n2)c(=O)[nH]c1=O (relative stereo) [Compound 778, (2S,4R)-4-fluoro-N-[(R*)-[6-fluoro-5-(propan-2-yl)pyridin-2-yl](phenyl)methyl]-1-[2-(5-methyl-2,4-dioxo-1,2,3,4-tetrahydropyrimidin-1-yl)acetyl]pyrrolidine-2-carboxamide] |
| 2180 | CC(=O)NCC(=O)N1CCC[C@H]1C(=O)NC(c1ccc(C2CC2)c(F)c1)c1cccc2[nH]c(=O)oc12 (single isomer, unassigned) [Compound 643, (2S)-N-[(R) or (S)-(4-cyclopropyl-3-fluorophenyl)(2-oxo-2,3-dihydro-1,3-benzoxazol-7-yl)methyl]-1-(2-acetamidoacetyl) pyrrolidine-2-carboxamide] |
| 616 | O=C(NC(c1ccc(C2CC2)c(F)c1)c1cccc2[nH]c(=O)[nH]c12)[C@@H]1CCCN1C(=O)Cc1cnn[nH]1 (single isomer, unassigned) [Compound 648] |
| 2270 | CC(C)c1c(F)cc(C(NC(=O)[C@@H]2C[C@@H](F)CN2C(=O)Cc2cnn[nH]2)c2ccccc2)cc1F (single isomer, unassigned) [Compound 666, (2S,4R)-N-[(R) or (S)-[3,5-difluoro-4-(propan-2-yl)phenyl](phenyl)methyl]-4-fluoro-1-[2-(1H-1,2,3-triazol-5-yl)acetyl]pyrrolidine-2-carboxamide] |
| 1740 | O=C(NC(c1ccccc1)c1ccc(C2CCC2)c(F)c1)[C@@H]1C[C@@H](F)CN1C(=O)Cc1cnn[nH]1 (single isomer, unassigned) [Compound 673, (2S,4R)-N-[(R) or (S)-(4-cyclobutyl-3-fluorophenyl)(phenyl)methyl]-4-fluoro-1-[2-(1H-1,2,3-triazol-5-yl)acetyl]pyrrolidine-2-carboxamide] |
| 106 | CC(=O)N1C[C@H](F)C[C@H]1C(=O)N[C@@H](c1cccc(-c2nnc[nH]2)c1)c1ccc(C(C)C)c(F)n1 (single isomer, unassigned) [Compound 688, (2S,4R)—N—((S) or (R)-(3-(4H-1,2,4-triazol-3-yl)phenyl)(6-fluoro-5-isopropylpyridin-2-yl)methyl)-1-acetyl-4-fluoropyrrolidine-2-carboxamide] |
| > 10000 | CC(=O)N1C[C@H](F)C[C@H]1C(=O)N[C@H](c1cccc(-c2nnc[nH]2)c1)c1ccc(C(C)C)c(F)n1 (single isomer, unassigned) [Compound 689, (2S,4R)—N—((R) or (S)-(3-(4H-1,2,4-triazol-3-yl)phenyl)(6-fluoro-5-isopropylpyridin-2-yl)methyl)-1-acetyl-4-fluoropyrrolidine-2-carboxamide] |
| 151 | CC(=O)N1C[C@H](F)C[C@H]1C(=O)NC(c1cccc(-c2ccno2)c1)c1ccc(C(C)C)c(F)n1 (single isomer, unassigned) [Compound 698, (2S,4R)-1-acetyl-4-fluoro-N-[(S) or (R)-[6-fluoro-5-(propan-2-yl)pyridin-2-yl][3-(1,2-oxazol-5-yl)phenyl]methyl] pyrrolidine-2-carboxamide] |
| 51 | CC(=O)N1C[C@H](F)C[C@H]1C(=O)NC(c1cccc(-n2cccn2)c1)c1ccc(C(C)C)c(F)n1 (single isomer, unassigned) [Compound 699, (2S,4R)-1-acetyl-4-fluoro-N-[(S) or (R)-[6-fluoro-5-(propan-2-yl)pyridin-2-yl][3-(1H-pyrazol-1-yl)phenyl]methyl] pyrrolidine-2-carboxamide] |
| 321 | CC(=O)N1C[C@H](F)C[C@H]1C(=O)NC(c1cccc(-c2nnco2)c1)c1ccc(C(C)C)c(F)n1 (single isomer, unassigned) [Compound 700, (2S,4R)-1-acetyl-4-fluoro-N-[(S) or (R)-[6-fluoro-5-(propan-2-yl)pyridin-2-yl][3-(1,3,4-oxadiazol-2-yl)phenyl]methyl] pyrrolidine-2-carboxamide] |
